According to PubChem BioAssay AID1996:
≈ marks a conversion by molar mass, not a printed value.

settings: buffer; pH 7.4; 200.0 µM

Question: With `COc1ccc(/C=C/C(=O)O)cc1S(=O)(=O)NCc1cccnc1` as the compound, how does the solubility kinetic read?
Answer: Its solubility kinetic is > 52.3 µg/mL.

Question: Which solubility kinetic does the source give for `CC1CN(C(=O)COC(=O)/C=C/c2cccc([N+](=O)[O-])c2)CC(C)O1` (centres undefined) here?
Answer: The solubility kinetic was 34.2 µg/mL (≈ 98.2 µM).

Question: For `Cc1ccc(OC(C)C(=O)Nc2ncc(Cl)cc2Cl)c([N+](=O)[O-])n1` (centres undefined), which solubility kinetic is on record?
Answer: Its solubility kinetic is 8.9 µg/mL (≈ 24 µM).

Question: Which solubility kinetic does the source give for `Cc1ccc(NC(=O)c2ccc([N+](=O)[O-])o2)c(C)c1` here?
Answer: Its solubility kinetic is > 39 µg/mL.

Question: With `CC1=C([N+](=O)[O-])C(c2ccccc2)NC(=O)N1` (centres undefined) as the compound, how does the solubility kinetic read?
Answer: Its solubility kinetic is > 35 µg/mL.

Question: For `Cc1ccc(C)c(CSCC(=O)NCc2cccs2)c1`, which solubility kinetic is on record?
Answer: The solubility kinetic was 41.8 µg/mL (≈ 137 µM).

Question: For `CCN(C(=O)CSc1nnc(-c2ccc(OC)cc2)n1C(C)C)C1CCS(=O)(=O)C1` (centres undefined), which solubility kinetic is on record?
Answer: Its solubility kinetic is > 67.9 µg/mL.

Question: With `NS(=O)(=O)c1cccc(NC(=O)COC(=O)c2cc([N+](=O)[O-])ccc2N2CCCC2)c1` as the compound, how does the solubility kinetic read?
Answer: The solubility kinetic was 9.7 µg/mL (≈ 21.6 µM).

Question: With `CC#CC(=O)N1CCC(CO)(CCc2ccccc2)CC1` as the compound, how does the solubility kinetic read?
Answer: Its solubility kinetic is 41.8 µg/mL (≈ 146 µM).

Question: For `Cc1cc(NC(=O)CC(C)C)c(=O)n(Cc2ccccc2F)c1`, which solubility kinetic is on record?
Answer: Its solubility kinetic is 37.3 µg/mL (≈ 118 µM).

Question: With `COCCNC(=O)/C(C#N)=C/c1ccccc1Br` as the compound, how does the solubility kinetic read?
Answer: The solubility kinetic was > 46.4 µg/mL.

Question: With `CCCCNS(=O)(=O)c1ccc(NC(=O)c2cccs2)cc1` as the compound, how does the solubility kinetic read?
Answer: Its solubility kinetic is 1 µg/mL (≈ 2.95 µM).

Question: For `CC(NC(=O)Nc1ccc(F)cc1)c1ccc2c(c1)OCO2` (centres undefined), which solubility kinetic is on record?
Answer: Its solubility kinetic is 3.4 µg/mL (≈ 11.2 µM).

Question: For `O=[N+]([O-])c1ccccc1Oc1ncccc1[N+](=O)[O-]`, which solubility kinetic is on record?
Answer: Its solubility kinetic is 27.3 µg/mL (≈ 105 µM).

Question: Which solubility kinetic does the source give for `O=C(COc1ccc2ccc(=O)oc2c1)NC1CCS(=O)(=O)C1` (centres undefined) here?
Answer: The solubility kinetic was > 50.6 µg/mL.

Question: Which solubility kinetic does the source give for `Cc1ccc(S(=O)(=O)Nc2cccnc2)c(C)c1C` here?
Answer: Its solubility kinetic is 9.1 µg/mL (≈ 32.9 µM).

Question: Which solubility kinetic does the source give for `CCOC(=O)C1=C(COC(=O)/C=C/c2cccc(F)c2)NC(=O)NC1C` (centres undefined) here?
Answer: Its solubility kinetic is 4.6 µg/mL (≈ 12.7 µM).

Question: For `CC(/C=C1\SC(=Nc2cccnc2)NC1=O)=C\c1ccccc1`, which solubility kinetic is on record?
Answer: The solubility kinetic was 1.7 µg/mL (≈ 5.29 µM).

Question: For `COc1ccc(NC(=O)NC2CCCCCCC2)cc1OC`, which solubility kinetic is on record?
Answer: Its solubility kinetic is 2.7 µg/mL (≈ 8.81 µM).

Question: With `COc1ccc2[nH]cc(CCN(C)C)c2c1` as the compound, how does the solubility kinetic read?
Answer: The solubility kinetic was > 32.7 µg/mL.

Question: Which solubility kinetic does the source give for `O=C(O)c1ccc(NC(=O)c2ccco2)c(NC(=O)c2ccco2)c1` here?
Answer: The solubility kinetic was > 51 µg/mL.

Question: With `COc1ccc(OCC(O)CNC(=O)Nc2ccccc2)cc1` (centres undefined) as the compound, how does the solubility kinetic read?
Answer: The solubility kinetic was 26.9 µg/mL (≈ 85 µM).

Question: Which solubility kinetic does the source give for `CC1CCCC(C)N1C(=O)CN1c2cccc3cccc(c23)S1(=O)=O` (centres undefined) here?
Answer: The solubility kinetic was 6.7 µg/mL (≈ 18.7 µM).

Question: With `CCN(CC(=O)Nc1ccccc1OC)C(=O)CCc1ccccc1` as the compound, how does the solubility kinetic read?
Answer: The solubility kinetic was 46 µg/mL (≈ 135 µM).

Question: With `CCOc1ccc(NC(=O)CCC(=O)c2ccc(F)cc2)cc1` as the compound, how does the solubility kinetic read?
Answer: Its solubility kinetic is 2.5 µg/mL (≈ 7.93 µM).

Question: Which solubility kinetic does the source give for `CC(C)c1nc(SCC(=O)c2ccc(F)cc2)c2ccccc2n1` here?
Answer: The solubility kinetic was 1.7 µg/mL (≈ 4.99 µM).

Question: Which solubility kinetic does the source give for `Cn1ncc([N+](=O)[O-])c1C(=O)NC1CCCCC1` here?
Answer: Its solubility kinetic is > 37.8 µg/mL.

Question: For `O=C(COC(=O)C1=COCCO1)Nc1ccc(F)c(F)c1`, which solubility kinetic is on record?
Answer: The solubility kinetic was 4.6 µg/mL (≈ 15.4 µM).

Question: For `C/C=C/c1ccc(OCC(O)CN2CCCCCCC2)c(OC)c1` (centres undefined), which solubility kinetic is on record?
Answer: The solubility kinetic was 35.2 µg/mL (≈ 106 µM).

Question: For `CCC(C)c1ccc(NC(=S)N2CCN(c3ccccn3)CC2)cc1` (centres undefined), which solubility kinetic is on record?
Answer: The solubility kinetic was 2.6 µg/mL (≈ 7.33 µM).

Question: With `O=C(c1cc(-c2ccc(F)cc2)on1)N1CCOCC1` as the compound, how does the solubility kinetic read?
Answer: The solubility kinetic was > 41.4 µg/mL.

Question: Which solubility kinetic does the source give for `COc1ccccc1OCC(O)CN1CCN(CC(=O)Nc2c(C)cccc2C)CC1.Cl` (centres undefined) here?
Answer: Its solubility kinetic is > 75.1 µg/mL.

Question: With `C/C(=N\O)c1c(O)cc(-c2ccccc2)n(-c2ccccc2)c1=O` as the compound, how does the solubility kinetic read?
Answer: Its solubility kinetic is > 48.1 µg/mL.

Question: With `CC(C)(C)C1COc2ccccc2N1C(=O)c1cccc(Cl)c1` (centres undefined) as the compound, how does the solubility kinetic read?
Answer: Its solubility kinetic is < 0.7 µg/mL.

Question: With `Cl.O=C(Nc1ncccc1Cl)c1ccc2c(c1)OCCO2` as the compound, how does the solubility kinetic read?
Answer: The solubility kinetic was 37 µg/mL.

Question: Which solubility kinetic does the source give for `CNC(=O)Cn1c(C)cc(=O)c2cccc(C)c21` here?
Answer: The solubility kinetic was > 36.6 µg/mL.

Question: For `CCc1nnc(NC(=O)CN2CCCC(C)C2)s1` (centres undefined), which solubility kinetic is on record?
Answer: Its solubility kinetic is > 40.3 µg/mL.

Question: Which solubility kinetic does the source give for `O=C(Cn1c(=O)n(CC2CS2)c2ccccc21)N1CCCCC1` (centres undefined) here?
Answer: Its solubility kinetic is > 49.7 µg/mL.

Question: Which solubility kinetic does the source give for `CCN1CCc2nc3ccccc3c(C(=O)Nc3ccc(F)cc3)c2C1` here?
Answer: Its solubility kinetic is 8.3 µg/mL (≈ 23.8 µM).

Question: For `COc1cc(CN2CCCN(C)CC2)c([N+](=O)[O-])cc1OC`, which solubility kinetic is on record?
Answer: Its solubility kinetic is 39 µg/mL (≈ 126 µM).

Question: Which solubility kinetic does the source give for `CC(C)c1onc(C(=O)N2CCC(C(N)=O)CC2)c1[N+](=O)[O-]` here?
Answer: Its solubility kinetic is > 46.5 µg/mL.

Question: With `O=Cc1ccc(OCC(=O)NCC2CCCO2)cc1` (centres undefined) as the compound, how does the solubility kinetic read?
Answer: The solubility kinetic was 36.4 µg/mL (≈ 138 µM).

Question: With `Cc1ccc(NC(=O)COC(=O)CCc2ccccc2)cc1S(=O)(=O)N1CCOCC1` as the compound, how does the solubility kinetic read?
Answer: The solubility kinetic was 24.6 µg/mL (≈ 55.1 µM).

Question: Which solubility kinetic does the source give for `Cc1cc(C)nc(Nc2nc(-c3ccccc3)cs2)n1` here?
Answer: Its solubility kinetic is < 0.2 µg/mL.

Question: For `CCN1CCCC1CNC(=O)c1[nH]c2ccc(OC)cc2c1C` (centres undefined), which solubility kinetic is on record?
Answer: The solubility kinetic was > 47.3 µg/mL.

Question: With `COCC1CCN(Cc2nc(-c3ccc(OC)cc3)no2)CC1` as the compound, how does the solubility kinetic read?
Answer: The solubility kinetic was 41 µg/mL (≈ 129 µM).

Question: With `CN(C(=O)CSc1nnc(-c2ccc(F)cc2)n1C)C1CCS(=O)(=O)C1` (centres undefined) as the compound, how does the solubility kinetic read?
Answer: Its solubility kinetic is > 59.8 µg/mL.

Question: With `COc1ccc(C(=O)O)cc1S(=O)(=O)NCc1ccncc1` as the compound, how does the solubility kinetic read?
Answer: Its solubility kinetic is > 48.4 µg/mL.

Question: With `Cc1ccccc1NC(=O)Nc1ccccn1` as the compound, how does the solubility kinetic read?
Answer: Its solubility kinetic is 0.7 µg/mL (≈ 3.08 µM).

Question: For `NC(=O)CS(=O)(=O)c1nc2ccccc2n1Cc1ccccn1`, which solubility kinetic is on record?
Answer: The solubility kinetic was > 49.6 µg/mL.

Question: With `Cc1ccc(S(=O)(=O)NC2CC2)cc1[N+](=O)[O-]` as the compound, how does the solubility kinetic read?
Answer: Its solubility kinetic is > 38.4 µg/mL.

Question: With `O=C(Nc1ccon1)Nc1cccc(Cl)c1Cl` as the compound, how does the solubility kinetic read?
Answer: The solubility kinetic was 1.9 µg/mL (≈ 6.98 µM).

Question: With `Cc1cccc(OCC(=O)NC2CC(C)(C)NC(C)(C)C2)c1` as the compound, how does the solubility kinetic read?
Answer: Its solubility kinetic is > 45.7 µg/mL.

Question: For `O=C(CCSCc1ccccc1Cl)NCc1ccco1`, which solubility kinetic is on record?
Answer: Its solubility kinetic is > 46.5 µg/mL.

Question: For `c1ccc2[nH]c(SN3CCOCC3)nc2c1`, which solubility kinetic is on record?
Answer: Its solubility kinetic is 10.8 µg/mL (≈ 45.9 µM).

Question: Which solubility kinetic does the source give for `Cc1ccc(-n2c(O)c(C=NCC3CCCO3)c(=O)[nH]c2=O)c(C)c1` (centres undefined) here?
Answer: Its solubility kinetic is > 51.5 µg/mL.

Question: With `CCCCCOc1ccc(NC2=CC(=O)CCC2)cc1` as the compound, how does the solubility kinetic read?
Answer: Its solubility kinetic is > 41 µg/mL.

Question: For `COc1ccccc1C(=O)NCC1(c2ccccc2)CCCC1`, which solubility kinetic is on record?
Answer: The solubility kinetic was 8.1 µg/mL (≈ 26.2 µM).

Question: For `CN1C(=O)/C(=C/c2ccc(OCc3cccc(F)c3)cc2)NC1=S`, which solubility kinetic is on record?
Answer: Its solubility kinetic is < 0.4 µg/mL.
